This is an account of results in ChEMBL document CHEMBL3593193, “Discovery of 3,6-dihydroimidazo[4,5-d]pyrrolo[2,3-b]pyridin-2(1H)-one derivatives as novel JAK inhibitors” (Bioorg Med Chem, 2015).

The structures appear in SMILES notation.

Series [1] concerns the target T1, Tyrosine-protein kinase JAK3 (Homo sapiens, UniProt P52333).
T1 sequence (P52333 whole entry): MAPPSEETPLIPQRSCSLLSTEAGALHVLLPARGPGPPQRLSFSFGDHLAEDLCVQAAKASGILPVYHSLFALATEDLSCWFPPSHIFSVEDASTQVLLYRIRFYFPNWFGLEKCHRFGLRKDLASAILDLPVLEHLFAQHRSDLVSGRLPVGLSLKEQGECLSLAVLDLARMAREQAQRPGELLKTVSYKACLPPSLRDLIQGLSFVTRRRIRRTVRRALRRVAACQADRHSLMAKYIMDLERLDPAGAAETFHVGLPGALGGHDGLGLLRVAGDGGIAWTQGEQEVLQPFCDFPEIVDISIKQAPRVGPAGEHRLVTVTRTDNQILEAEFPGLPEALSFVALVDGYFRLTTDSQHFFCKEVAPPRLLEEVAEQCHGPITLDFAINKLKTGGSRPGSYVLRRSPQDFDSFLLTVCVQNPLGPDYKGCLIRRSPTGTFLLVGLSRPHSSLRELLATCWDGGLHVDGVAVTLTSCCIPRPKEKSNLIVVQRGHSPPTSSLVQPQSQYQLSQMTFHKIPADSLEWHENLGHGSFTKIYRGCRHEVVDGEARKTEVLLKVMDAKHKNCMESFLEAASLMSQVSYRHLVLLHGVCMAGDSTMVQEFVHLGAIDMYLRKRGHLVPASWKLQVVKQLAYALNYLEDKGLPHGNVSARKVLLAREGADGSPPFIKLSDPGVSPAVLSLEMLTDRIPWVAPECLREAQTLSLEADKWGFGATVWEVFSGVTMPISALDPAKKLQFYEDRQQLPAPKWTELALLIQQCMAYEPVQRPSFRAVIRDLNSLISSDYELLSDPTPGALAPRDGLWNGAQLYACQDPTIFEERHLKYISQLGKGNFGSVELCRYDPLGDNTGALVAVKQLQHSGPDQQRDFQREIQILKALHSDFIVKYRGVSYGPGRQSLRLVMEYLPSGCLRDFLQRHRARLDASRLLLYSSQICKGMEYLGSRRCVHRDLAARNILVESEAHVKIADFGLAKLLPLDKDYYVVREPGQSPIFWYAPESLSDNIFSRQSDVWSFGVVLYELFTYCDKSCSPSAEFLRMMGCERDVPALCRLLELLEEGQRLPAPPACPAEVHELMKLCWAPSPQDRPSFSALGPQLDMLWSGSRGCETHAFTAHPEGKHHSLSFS
Description: Inhibition of human JAK3 kinase domain using biotin-Lyn-substrate-2 as substrate and ATP incubated for 1 hr by ELISA method

Series [2] has as its target Tyrosine-protein kinase JAK2 (Homo sapiens, UniProt O60674).
Description: Inhibition of human JAK2 kinase domain using biotin-Lyn-substrate-2 as substrate and ATP incubated for 1 hr by ELISA method
The target of series [3] is Tyrosine-protein kinase JAK1 (Homo sapiens, UniProt P23458).
Chain of Tyrosine-protein kinase JAK1 (P23458 whole entry): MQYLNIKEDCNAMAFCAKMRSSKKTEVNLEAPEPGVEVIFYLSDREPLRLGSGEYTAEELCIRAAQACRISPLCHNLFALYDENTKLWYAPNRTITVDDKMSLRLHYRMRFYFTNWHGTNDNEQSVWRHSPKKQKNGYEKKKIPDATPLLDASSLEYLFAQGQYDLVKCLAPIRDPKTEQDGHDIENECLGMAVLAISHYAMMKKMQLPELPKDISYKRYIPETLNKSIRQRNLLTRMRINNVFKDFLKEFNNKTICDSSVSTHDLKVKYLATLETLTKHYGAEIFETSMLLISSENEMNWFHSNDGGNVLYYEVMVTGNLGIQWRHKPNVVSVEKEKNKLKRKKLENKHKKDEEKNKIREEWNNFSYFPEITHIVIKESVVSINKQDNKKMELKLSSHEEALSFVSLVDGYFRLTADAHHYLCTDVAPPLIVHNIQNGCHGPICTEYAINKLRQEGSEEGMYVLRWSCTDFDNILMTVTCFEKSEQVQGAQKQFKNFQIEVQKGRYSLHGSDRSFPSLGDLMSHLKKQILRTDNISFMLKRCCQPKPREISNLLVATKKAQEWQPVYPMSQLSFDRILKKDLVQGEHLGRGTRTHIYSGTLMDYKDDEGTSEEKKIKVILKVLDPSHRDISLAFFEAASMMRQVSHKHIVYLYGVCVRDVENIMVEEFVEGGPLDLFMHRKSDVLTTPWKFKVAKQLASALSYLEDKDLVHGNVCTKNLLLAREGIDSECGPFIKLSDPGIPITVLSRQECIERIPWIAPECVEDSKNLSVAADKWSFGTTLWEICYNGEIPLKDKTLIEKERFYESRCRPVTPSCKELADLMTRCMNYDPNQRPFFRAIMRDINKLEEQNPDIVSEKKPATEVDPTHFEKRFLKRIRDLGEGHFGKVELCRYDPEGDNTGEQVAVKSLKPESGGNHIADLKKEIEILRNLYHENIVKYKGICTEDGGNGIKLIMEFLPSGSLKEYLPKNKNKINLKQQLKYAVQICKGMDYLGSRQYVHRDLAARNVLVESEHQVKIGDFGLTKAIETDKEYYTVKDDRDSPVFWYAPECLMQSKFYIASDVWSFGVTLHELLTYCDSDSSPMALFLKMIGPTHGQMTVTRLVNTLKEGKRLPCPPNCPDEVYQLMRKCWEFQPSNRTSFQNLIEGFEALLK
Description: Inhibition of human JAK1 kinase domain using biotin-Lyn-substrate-2 as substrate and ATP incubated for 1 hr by ELISA method
The nature of another series: cells. The note with it: Rattus norvegicus, Lewis, T-cell, 72 h.
Another series can be described thus: in vitro. The note with it: Sprague-Dawley, rat, liver microsomes.
For series [4], the target named is T2, CYP3A4 (Homo sapiens, UniProt P08684). In words: Time dependent inhibition of CYP3A4 in human liver microsomes assessed as remaining enzyme activity by measuring midazolam to 1'-hydroxymidazolam conversion at 5 uM pre-incubated for 30 mins before midazolam addition by LC-MS/MS method. In kind it is ADME. The following applies: probe midazolam (conversion to 1'-hydroxymidazolam), read-out: Activity.
T2 sequence (P08684 whole entry): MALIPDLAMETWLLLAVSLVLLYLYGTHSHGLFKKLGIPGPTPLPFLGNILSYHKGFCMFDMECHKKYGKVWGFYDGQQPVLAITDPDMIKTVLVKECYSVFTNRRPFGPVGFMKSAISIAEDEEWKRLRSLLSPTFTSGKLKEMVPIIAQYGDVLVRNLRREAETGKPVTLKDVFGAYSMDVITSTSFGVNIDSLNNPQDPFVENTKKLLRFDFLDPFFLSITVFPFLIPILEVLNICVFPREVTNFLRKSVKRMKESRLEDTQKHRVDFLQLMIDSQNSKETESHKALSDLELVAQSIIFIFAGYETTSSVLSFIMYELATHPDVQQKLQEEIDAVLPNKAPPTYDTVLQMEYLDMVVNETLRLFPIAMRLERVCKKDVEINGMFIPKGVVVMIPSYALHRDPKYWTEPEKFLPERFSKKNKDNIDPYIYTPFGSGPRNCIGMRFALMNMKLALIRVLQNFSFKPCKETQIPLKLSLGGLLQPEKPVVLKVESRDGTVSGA

Series [5] concerns the target T2, CYP3A4. Put plainly: Reversible inhibition of CYP3A4 in human liver microsomes assessed as remaining enzyme activity by measuring midazolam to 1'-hydroxymidazolam conversion at 5 uM pre-incubated for 30 mins before midazolam addition by LC-MS/MS method. In kind it is ADME. The note with it: probe midazolam (conversion to 1'-hydroxymidazolam), read-out: Activity.

For another series, the system named is Liver microsome. The following applies: rat, microsomes, 0.5 h, 2 µM.

Chain of Tyrosine-protein kinase JAK2 (O60674 whole entry): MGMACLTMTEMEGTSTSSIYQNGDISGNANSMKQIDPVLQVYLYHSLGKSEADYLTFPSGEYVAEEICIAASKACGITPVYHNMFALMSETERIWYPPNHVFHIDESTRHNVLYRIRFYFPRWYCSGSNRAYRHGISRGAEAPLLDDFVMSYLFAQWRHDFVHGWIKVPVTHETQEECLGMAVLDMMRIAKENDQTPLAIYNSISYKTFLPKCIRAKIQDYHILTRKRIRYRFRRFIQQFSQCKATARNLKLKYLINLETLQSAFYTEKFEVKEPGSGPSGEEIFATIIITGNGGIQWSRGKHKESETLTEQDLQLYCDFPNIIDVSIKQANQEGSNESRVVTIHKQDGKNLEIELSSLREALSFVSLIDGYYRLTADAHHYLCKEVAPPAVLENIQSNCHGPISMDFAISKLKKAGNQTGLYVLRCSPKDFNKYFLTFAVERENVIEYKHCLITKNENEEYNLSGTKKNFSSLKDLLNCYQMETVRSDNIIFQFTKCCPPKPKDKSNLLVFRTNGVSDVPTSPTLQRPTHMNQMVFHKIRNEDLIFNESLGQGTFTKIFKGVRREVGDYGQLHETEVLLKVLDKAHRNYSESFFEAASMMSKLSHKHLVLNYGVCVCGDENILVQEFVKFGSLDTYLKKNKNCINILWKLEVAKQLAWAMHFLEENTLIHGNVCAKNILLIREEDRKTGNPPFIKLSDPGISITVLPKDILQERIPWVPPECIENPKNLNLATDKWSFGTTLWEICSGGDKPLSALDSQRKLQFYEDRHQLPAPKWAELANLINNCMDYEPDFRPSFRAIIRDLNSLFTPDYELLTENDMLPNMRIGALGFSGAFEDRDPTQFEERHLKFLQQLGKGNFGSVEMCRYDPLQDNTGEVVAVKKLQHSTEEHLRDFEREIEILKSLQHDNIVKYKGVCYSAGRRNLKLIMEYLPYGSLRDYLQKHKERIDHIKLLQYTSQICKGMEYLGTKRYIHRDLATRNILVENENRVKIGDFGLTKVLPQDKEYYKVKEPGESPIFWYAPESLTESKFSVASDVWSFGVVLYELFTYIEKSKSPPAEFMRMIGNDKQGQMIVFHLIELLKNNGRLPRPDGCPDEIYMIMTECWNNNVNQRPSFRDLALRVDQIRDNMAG
Description for cells: Inhibition of JAK1/JAK3 in Lewis rat splenocytes assessed as reduction in IL2-induced T cell proliferation incubated for 3 days by alamar blue assay

For `CN(c1ccnc2[nH]ccc12)C1CCCCC1`, the IC50 in series [1] came to 1100 nM; in series [2] it was 1800 nM; in series [3], 2900 nM.

On to `O=c1[nH]c2cnc3[nH]ccc3c2n1C1CCCCC1`, for which the IC50 came out at 54 nM in series [1], 43 nM in series [2], 79 nM in series [3] and 160 nM in “cells”. The CLint scaled at 0.5 h, 2 µM in “in vitro” turned out to be 153 mL/min/kg.

As for `O=c1[nH]c2cnc3[nH]ccc3c2n1C1CCCC1`, the IC50 was found to be 180 nM in series [1], 97 nM in series [2] and 110 nM in series [3].

For the compound `O=c1[nH]c2cnc3[nH]ccc3c2n1CC1CCCCC1`, the IC50 in series [1] is 60 nM; in series [2] it was 88 nM; in series [3], 1000 nM; in “cells”, 860 nM. Also, the CLint scaled at 0.5 h, 2 µM in the series “in vitro” was found to be 802 mL/min/kg.

In the case of `C[C@@H]1CCCC[C@@H]1n1c(=O)[nH]c2cnc3[nH]ccc3c21`, the activity at 30 min, 5 µM on CYP3A4 [4] came out at 49%; at CYP3A4 [5], 95%. In addition, the half-maximal inhibitory concentration (IC50) in series [2] turned out to be 4.4 nM; in series [3], 14 nM; in “cells”, 32 nM. In the series “in vitro”, this compound gave a CLint scaled at 0.5 h, 2 µM of 300 mL/min/kg.

On to `C[C@H]1CCCC[C@H]1n1c(=O)[nH]c2cnc3[nH]ccc3c21`, for which the IC50 was 27 nM in series [1], 17 nM in series [2], 28 nM in series [3] and 110 nM in “cells”.

For `CC1CCCC(n2c(=O)[nH]c3cnc4[nH]ccc4c32)C1` (centres undefined), the IC50 was determined as 21 nM in series [1], 23 nM in series [2], 430 nM in series [3] and 1000 nM in “cells”.

As for `CC1CCC(n2c(=O)[nH]c3cnc4[nH]ccc4c32)CC1` (centres undefined), the IC50 in series [1] was 42 nM; in series [2] it was 23 nM; in series [3] it was 24 nM; in “cells” it was 120 nM.

As for `CC1(C)CCCCC1n1c(=O)[nH]c2cnc3[nH]ccc3c21` (centres undefined), the IC50 in series [1] was 69 nM; in series [2], 85 nM; in series [3] it was 90 nM; in the series “cells” it was 110 nM.

`CC[C@@H]1CCCC[C@@H]1n1c(=O)[nH]c2cnc3[nH]ccc3c21`: the IC50 worked out at 3 nM in series [1], 3.6 nM in series [2], 18 nM in series [3] and 36 nM in the series “cells”. The CLint scaled at 0.5 h, 2 µM in “in vitro” was above 1000 mL/min/kg.

Turning to `O=c1[nH]c2cnc3[nH]ccc3c2n1C1CCOCC1`, the activity at 30 min, 5 µM on CYP3A4 [4] was 90%. For the same compound, the IC50 in series [1] came to 270 nM; in series [3], 520 nM; in the series “cells” it was 1400 nM. Also, the CLH entry in the series with Liver microsome is given as “Stable”.

With `O=c1[nH]c2cnc3[nH]ccc3c2n1C1CCNCC1`, the IC50 in series [1] is 1200 nM; in series [2], 1300 nM; in “cells”, 2800 nM.

In the case of `CS(=O)(=O)N1CCC(n2c(=O)[nH]c3cnc4[nH]ccc4c32)CC1`, the IC50 in series [1] amounted to 710 nM; in series [2], 140 nM; in series [3], 140 nM.

With `CS(=O)(=O)N1CCC[C@@H](n2c(=O)[nH]c3cnc4[nH]ccc4c32)C1`, the IC50 in series [1] is 63 nM; in series [2], 82 nM; in series [3] it was 230 nM; in “cells”, 1700 nM.

Take `CS(=O)(=O)N1CCC[C@H](n2c(=O)[nH]c3cnc4[nH]ccc4c32)C1`: the figures for the IC50 in series [1] and in series [2] were 460 nM and 850 nM, respectively.

For the compound `N#CCC(=O)N1CCC[C@@H](n2c(=O)[nH]c3cnc4[nH]ccc4c32)C1`, the half-maximal inhibitory concentration (IC50) in series [1] was 28 nM; in series [2], 17 nM; in series [3], 20 nM; in the series “cells” it was 310 nM.

Take `O=c1[nH]c2cnc3[nH]ccc3c2n1C1CCCCCC1`: the IC50 is 22 nM in series [1], 23 nM in series [2], 30 nM in series [3] and 74 nM in “cells”. In the series “in vitro”, this compound returned a CLint scaled at 0.5 h, 2 µM of 272 mL/min/kg.

As for `C[C@@H]1CCN(C(=O)CC#N)C[C@@H]1n1c(=O)[nH]c2cnc3[nH]ccc3c21` (racemic), the activity at 30 min, 5 µM on CYP3A4 [4] stood at 86%. Moreover, the IC50 is 1.1 nM in series [1], 2.6 nM in series [2], 1.5 nM in series [3] and 36 nM in “cells”. In addition, the CLH result in the series on Liver microsome is “Stable”.

Consider `C[C@@H]1CCN(C(=O)CC#N)C[C@@H]1n1c(=O)n(C)c2cnc3[nH]ccc3c21` (racemic), for which the IC50 was determined as 5 nM in series [1], 7.3 nM in series [2], 29 nM in series [3] and 158 nM in the series “cells”.
